pIC50: −log10 of the molar value.
Legend:
[1] = biological target: Recombinant human c-Cbl (aa 47-435) (Homo sapiens (Human), UniProt P22681); experiment: c-Cbl Biochemical Assay (TR-FRET)
How it was run: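 Biotinylated c-Cbl (6 nM) preincubated 30 min RT with compound, then reacted 60-90 min with Src-Zap70 (2.5-10 nM) and 0.5 mM ATP, pH 7.0 HEPES buffer. Stopped with EDTA; 100 nM Bodipy-ubiquitinated UBE2D2 binding read by TR-FRET after 60 min; IC50 from 4-parameter fit.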

[2] = biological target: Recombinant human Cbl-b (aa 36-427) (Homo sapiens (Human), UniProt Q13191); experiment: Cbl-b Biochemical Assay (TR-FRET); details: read-out: TR-FRET hCbl-b IC50
Sequence of Recombinant human Cbl-b (aa 36-427) (Q13191 36-427): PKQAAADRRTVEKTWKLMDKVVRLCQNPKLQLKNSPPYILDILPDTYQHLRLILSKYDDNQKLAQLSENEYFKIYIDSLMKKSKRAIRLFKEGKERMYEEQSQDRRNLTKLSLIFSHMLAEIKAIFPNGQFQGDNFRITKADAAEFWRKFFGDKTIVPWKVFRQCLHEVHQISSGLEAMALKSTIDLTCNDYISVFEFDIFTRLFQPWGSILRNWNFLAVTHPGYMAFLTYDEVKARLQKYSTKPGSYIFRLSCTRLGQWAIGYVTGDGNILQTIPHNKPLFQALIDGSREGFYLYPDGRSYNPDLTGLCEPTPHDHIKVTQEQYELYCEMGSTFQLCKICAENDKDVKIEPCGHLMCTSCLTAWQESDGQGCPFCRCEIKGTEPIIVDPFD
How it was run: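 Two-step TR-FRET: 6 nM biotinylated Cbl-b preincubated 30-60 min with compound, then 60 min at RT with 1-2.5 nM Src-Zap70 and 0.5 mM ATP in HEPES pH 7.0 buffer, 1% DMSO. Stopped with 5 mM EDTA plus 100 nM UBE2D2-Ub-FL-BODIPY and 1 nM streptavidin-Tb, 60 min; 520 nm signal; IC50 from 4-parameter fit.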

Sequence of Recombinant human c-Cbl (aa 47-435) (P22681 47-435): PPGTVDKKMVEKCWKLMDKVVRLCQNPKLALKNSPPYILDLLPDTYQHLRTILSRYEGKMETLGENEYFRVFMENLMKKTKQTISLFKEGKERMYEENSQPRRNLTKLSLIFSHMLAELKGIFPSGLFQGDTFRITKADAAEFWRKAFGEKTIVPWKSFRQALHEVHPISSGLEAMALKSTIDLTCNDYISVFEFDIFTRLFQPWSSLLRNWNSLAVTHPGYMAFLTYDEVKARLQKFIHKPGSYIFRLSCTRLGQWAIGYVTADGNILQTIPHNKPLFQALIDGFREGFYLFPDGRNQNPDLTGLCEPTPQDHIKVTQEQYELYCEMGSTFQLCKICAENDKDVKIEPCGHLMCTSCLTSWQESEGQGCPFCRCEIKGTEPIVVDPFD

| Structure (SMILES) | pIC50 [1] | pIC50 [2] |
| --- | --- | --- |
| Cn1cnnc1-c1cc(C#N)ccc1-c1cc(C2CC2)nc(N2Cc3ccc(C(C)(C)NCC4CC4)cc3C2=O)c1 [ALL-2, 4-[2-Cyclopropyl-6-(6-{2-[(cyclopropylmethyl)amino]propan-2-yl}-1-oxo-3H-isoindol-2-yl)pyridin-4-yl]-3-(4-methyl-1,2,4-triazol-3-yl)benzonitrile] | ≥ 6.70 | ≥ 6.70 |
| Cn1cnnc1-c1cc(C#N)ccc1-c1cc(N2Cc3c(F)cc(CO)cc3C2=O)nc(C(F)(F)F)c1 [ALM-3, 4-{2-[4-Fluoro-6-(hydroxymethyl)-1-oxo-3H-isoindol-2-yl]-6-(trifluoromethyl)pyridin-4-yl}-3-(4-methyl-1,2,4-triazol-3-yl)benzonitrile] | 6.00 to 6.70 | ≥ 6.70 |
| COCCNCc1cc(F)c2c(c1)C(=O)N(c1cc(-c3ccc(C#N)cc3-c3nncn3C)cc(C(F)(F)F)n1)C2 [ALN-2, 4-[2-(4-Fluoro-6-{[(2-methoxyethyl)amino]methyl}-1-oxo-3H-isoindol-2-yl)-6-(trifluoromethyl)pyridin-4-yl]-3-(4-methyl-1,2,4-triazol-3-yl)benzonitrile] | ≥ 6.70 | ≥ 6.70 |
| Cn1cnnc1-c1cc(C#N)ccc1-c1cc(C2CC2)nc(N2Cc3c(F)cc(CNCC4(C)CCC4)cc3C2=O)c1 [ALO-2, 4-{2-Cyclopropyl-6-[4-fluoro-6-({[(1-methylcyclobutyl)methyl]amino}methyl)-1-oxo-3H-isoindol-2-yl]pyridin-4-yl}-3-(4-methyl-1,2,4-triazol-3-yl)benzonitrile] | ≥ 6.70 | ≥ 6.70 |
| Cn1cnnc1-c1cc(C#N)ccc1-c1cc(C2CC2)nc(N2Cc3ccc(CNCC4(C)CCC4)cc3C2=O)c1 [ALP-1, 4-{2-Cyclopropyl-6-[6-({[(1-methylcyclobutyl)methyl]amino}methyl)-1-oxo-3H-isoindol-2-yl]pyridin-4-yl}-3-(4-methyl-1,2,4-triazol-3-yl)benzonitrile] | ≥ 6.70 | ≥ 6.70 |
| Cn1cnnc1-c1cc(C#N)ccc1-c1cc(C2CC2)nc(N2Cc3ccc(CNC4CC4)cc3C2=O)c1 [ALQ-2, 4-(2-Cyclopropyl-6-{6-[(cyclopropylamino)methyl]-1-oxo-3H-isoindol-2-yl}pyridin-4-yl)-3-(4-methyl-1,2,4-triazol-3-yl)benzonitrile] | ≥ 6.70 | ≥ 6.70 |
| Cn1cnnc1-c1cc(C#N)ccc1-c1cc(C2CC2)nc(N2Cc3c(F)cc(CNC4CC4)cc3C2=O)c1 [ALR-1, 4-(2-Cyclopropyl-6-{6-[(cyclopropylamino)methyl]-4-fluoro-1-oxo-3H-isoindol-2-yl}pyridin-4-yl)-3-(4-methyl-1,2,4-triazol-3-yl)benzonitrile] | ≥ 6.70 | ≥ 6.70 |
| C[C@H]1CCCN(Cc2ccc3c(c2)C(=O)N(c2cc(-c4ccc(C#N)cc4-c4nncn4C)cc(C4CC4)n2)C3)C1 [ALS-1, 4-[2-Cyclopropyl-6-(6-{[(3S)-3-methylpiperidin-1-yl]methyl}-1-oxo-3H-isoindol-2-yl)pyridin-4-yl]-3-(4-methyl-1,2,4-triazol-3-yl)benzonitrile] | ≥ 6.70 | ≥ 6.70 |
| COCC1(NCc2ccc3c(c2)C(=O)N(c2cc(-c4ccc(C#N)cc4-c4nncn4C)cc(C4CC4)n2)C3)CC1 [ALT-2, 4-{2-Cyclopropyl-6-[6-({[1-(methoxymethyl)cyclopropyl]amino}methyl)-1-oxo-3H-isoindol-2-yl]pyridin-4-yl}-3-(4-methyl-1,2,4-triazol-3-yl)benzonitrile] | ≥ 6.70 | ≥ 6.70 |
| Cn1cnnc1-c1cc(C#N)ccc1-c1cc(C2CC2)nc(N2Cc3ccc(CN4CCC(F)(F)CC4)cc3C2=O)c1 [ALU-2, 4-(2-Cyclopropyl-6-{6-[(4,4-difluoropiperidin-1-yl)methyl]-1-oxo-3H-isoindol-2-yl}pyridin-4-yl)-3-(4-methyl-1,2,4-triazol-3-yl)benzonitrile] | ≥ 6.70 | ≥ 6.70 |
| COC(F)(F)CNCc1cc(F)c2c(c1)C(=O)N(c1cc(-c3ccc(C#N)cc3-c3nncn3C)cc(C3CC3)n1)C2 [ALV-4, 4-[2-Cyclopropyl-6-(6-{[(2,2-difluoro-2-methoxyethyl)amino]methyl}-4-fluoro-1-oxo-3H-isoindol-2-yl)pyridin-4-yl]-3-(4-methyl-1,2,4-triazol-3-yl)benzonitrile] | ≥ 6.70 | ≥ 6.70 |
| Cn1cnnc1-c1cc(C#N)ccc1-c1cc(C2CC2)nc(N2Cc3c(F)cc(CNCC(F)(F)F)cc3C2=O)c1 [ALW-1, -[2-Cyclopropyl-6-(4-fluoro-1-oxo-6-{[(2,2,2-trifluoroethyl)amino]methyl}-3H-isoindol-2-yl)pyridin-4-yl]-3-(4-methyl-1,2,4-triazol-3-yl)benzonitrile] | ≥ 6.70 | ≥ 6.70 |
| Cn1cnnc1-c1cc(C#N)ccc1-c1cc(C2CC2)nc(N2Cc3c(cc(CO)c(F)c3F)C2=O)c1 [ALX-9, 4-{2-Cyclopropyl-6-[4,5-difluoro-6-(hydroxymethyl)-1-oxo-3H-isoindol-2-yl]pyridin-4-yl}-3-(4-methyl-1,2,4-triazol-3-yl)benzonitrile] | ≥ 6.70 | ≥ 6.70 |
| Cn1cnnc1-c1cc(C#N)ccc1-c1cc(C2CC2)nc(N2Cc3c(cc(CNCCOC(F)(F)F)c(F)c3F)C2=O)c1 [ALY-2, 4-{2-Cyclopropyl-6-[4,5-difluoro-1-oxo-6-({[2-(trifluoromethoxy)ethyl]amino}methyl)-3H-isoindol-2-yl]pyridin-4-yl}-3-(4-methyl-1,2,4-triazol-3-yl)benzonitrile] | ≥ 6.70 | ≥ 6.70 |
| CNCCNCc1ccc2c(c1)C(=O)N(c1cc(-c3ccc(C#N)cc3-c3nncn3C)cc(C3CC3)n1)C2 [ALZ-3, 4-{2-Cyclopropyl-6-[6-({[2-(methylamino)ethyl]amino}methyl)-1-oxo-3H-isoindol-2-yl]pyridin-4-yl}-3-(4-methyl-1,2,4-triazol-3-yl)benzonitrile] | ≥ 6.70 | ≥ 6.70 |
| Cn1cnnc1-c1cc(C#N)ccc1-c1cc(C2CC2)nc(N2Cc3ccc(CNCC4(CO)CCC4)cc3C2=O)c1 [AMA-2, 4-(2-Cyclopropyl-6-{6-[({[1-(hydroxymethyl)cyclobutyl]methyl}amino)methyl]-1-oxo-3H-isoindol-2-yl}pyridin-4-yl)-3-(4-methyl-1,2,4-triazol-3-yl)benzonitrile] | ≥ 6.70 | ≥ 6.70 |
| CC(=O)NCCNCc1ccc2c(c1)C(=O)N(c1cc(-c3ccc(C#N)cc3-c3nncn3C)cc(C3CC3)n1)C2 [AMB-1, N-(2-{[(2-{4-[4-Cyano-2-(4-methyl-1,2,4-triazol-3-yl)phenyl]-6-cyclopropylpyridin-2-yl}-3-oxo-1H-isoindol-5-yl)methyl]amino}ethyl)acetamide] | ≥ 6.70 | ≥ 6.70 |
| Cn1cnnc1-c1cc(C#N)ccc1-c1cc(C2CC2)nc(N2Cc3c(F)cc(CNCC4CC4)cc3C2=O)c1 [AMC-2, 4-[2-Cyclopropyl-6-(6-{[(cyclopropylmethyl)amino]methyl}-4-fluoro-1-oxo-3H-isoindol-2-yl)pyridin-4-yl]-3-(4-methyl-1,2,4-triazol-3-yl)benzonitrile] | ≥ 6.70 | ≥ 6.70 |
| CO[C@@H](C)[C@H](C)NCc1cc(F)c2c(c1)C(=O)N(c1cc(-c3ccc(C#N)cc3-c3nncn3C)cc(C3CC3)n1)C2 [AMD-2, 4-{2-Cyclopropyl-6-[4-fluoro-6-({[(2S,3S)-3-methoxybutan-2-yl]amino}methyl)-1-oxo-3H-isoindol-2-yl]pyridin-4-yl}-3-(4-methyl-1,2,4-triazol-3-yl)benzonitrile] | ≥ 6.70 | ≥ 6.70 |
| Cn1cnnc1-c1cc(C#N)ccc1-c1cc(C2CC2)nc(N2Cc3c(F)cc(CNCCC(F)F)cc3C2=O)c1 [AME-2, 4-[2-Cyclopropyl-6-(6-{[(3,3-difluoropropyl)amino]methyl}-4-fluoro-1-oxo-3H-isoindol-2-yl)pyridin-4-yl]-3-(4-methyl-1,2,4-triazol-3-yl)benzonitrile] | ≥ 6.70 | ≥ 6.70 |
| CN(Cc1ccc2c(c1)C(=O)N(c1cc(-c3ccc(C#N)cc3-c3nncn3C)cc(C3CC3)n1)C2)CC1CCC1 [AMF-1, 4-[2-(6-{[(cyclobutylmethyl)(methyl)amino]methyl}-1-oxo-3H-isoindol-2-yl)-6-cyclopropylpyridin-4-yl]-3-(4-methyl-1,2,4-triazol-3-yl)benzonitrile] | ≥ 6.70 | ≥ 6.70 |
| CN(Cc1ccc2c(c1)C(=O)N(c1cc(-c3ccc(Cl)cc3-c3nncn3C)cc(C3CC3)n1)C2)CC1(O)CCC1 [AMG-1, 2-(4-(4-Chloro-2-(4-methyl-4H-1,2,4-triazol-3-yl)phenyl)-6-cyclopropylpyridin-2-yl)-6-((((1-hydroxycyclobutyl)methyl)(methyl)amino)methyl)isoindolin-1-one] | ≥ 6.70 | ≥ 6.70 |
| CN(Cc1ccc2c(c1)C(=O)N(c1cc(-c3ccc(C#N)cc3-c3nncn3C)cc(C3CC3)n1)C2)CC(C)(C)O [AMH-1, 4-[2-Cyclopropyl-6-(6-{[(2-hydroxy-2-methylpropyl)(methyl)amino]methyl}-1-oxo-3H-isoindol-2-yl)pyridin-4-yl]-3-(4-methyl-1,2,4-triazol-3-yl)benzonitrile] | ≥ 6.70 | ≥ 6.70 |
| Cn1cnnc1-c1cc(F)ccc1-c1cc(C2CC2)nc(N2Cc3c(F)cc(CO)cc3C2=O)c1 [AMI-1, 2-{6-Cyclopropyl-4-[4-fluoro-2-(4-methyl-1,2,4-triazol-3-yl)phenyl]pyridin-2-yl}-4-fluoro-6-(hydroxymethyl)-3H-isoindol-1-one] | ≥ 6.70 | ≥ 6.70 |
